ChEMBL document CHEMBL1201862, “PubChem BioAssay data set” (2004)
Activity calls are given as the source filed them.

Assays:
Mucolipin-3 = target: T1, Mucolipin-3 (Homo sapiens, UniProt Q8TDD5); experiment: Dose response cell-based high-throughput screening assay for agonists of the transient receptor potential channel ML3 (TRPML3). [Related pubchem assays: 1526, 1424, 1448 ]; assay type: functional
T1 sequence (Q8TDD5 whole entry): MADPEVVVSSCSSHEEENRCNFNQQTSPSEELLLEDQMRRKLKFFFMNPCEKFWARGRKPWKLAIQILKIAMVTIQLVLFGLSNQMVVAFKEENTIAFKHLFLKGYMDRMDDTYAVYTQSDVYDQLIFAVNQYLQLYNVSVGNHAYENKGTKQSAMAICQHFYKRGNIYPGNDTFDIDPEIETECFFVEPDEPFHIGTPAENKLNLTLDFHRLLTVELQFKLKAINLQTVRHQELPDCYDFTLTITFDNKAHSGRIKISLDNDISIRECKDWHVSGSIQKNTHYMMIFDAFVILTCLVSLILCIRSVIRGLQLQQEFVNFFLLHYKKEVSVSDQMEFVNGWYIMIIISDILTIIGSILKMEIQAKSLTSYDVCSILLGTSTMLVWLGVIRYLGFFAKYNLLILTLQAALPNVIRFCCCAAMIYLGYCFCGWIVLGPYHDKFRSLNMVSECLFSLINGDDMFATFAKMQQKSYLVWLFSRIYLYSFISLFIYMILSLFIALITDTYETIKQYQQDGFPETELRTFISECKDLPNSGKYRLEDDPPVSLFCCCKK

Ion channel NompC = Ion channel NompC (Danio rerio, UniProt Q7T1G6); experiment: Fluorescence counterscreen assay for TRPML3 agonists: dose response cell-based high-throughput screening assay to identify agonists of the transient receptor potential channel N1 (TRPN1). [Related pubchem assays: 1526, 1424, 1448 ]; assay type: functional
Ion channel NompC, sequence (Q7T1G6 whole entry, the tested form may be a part): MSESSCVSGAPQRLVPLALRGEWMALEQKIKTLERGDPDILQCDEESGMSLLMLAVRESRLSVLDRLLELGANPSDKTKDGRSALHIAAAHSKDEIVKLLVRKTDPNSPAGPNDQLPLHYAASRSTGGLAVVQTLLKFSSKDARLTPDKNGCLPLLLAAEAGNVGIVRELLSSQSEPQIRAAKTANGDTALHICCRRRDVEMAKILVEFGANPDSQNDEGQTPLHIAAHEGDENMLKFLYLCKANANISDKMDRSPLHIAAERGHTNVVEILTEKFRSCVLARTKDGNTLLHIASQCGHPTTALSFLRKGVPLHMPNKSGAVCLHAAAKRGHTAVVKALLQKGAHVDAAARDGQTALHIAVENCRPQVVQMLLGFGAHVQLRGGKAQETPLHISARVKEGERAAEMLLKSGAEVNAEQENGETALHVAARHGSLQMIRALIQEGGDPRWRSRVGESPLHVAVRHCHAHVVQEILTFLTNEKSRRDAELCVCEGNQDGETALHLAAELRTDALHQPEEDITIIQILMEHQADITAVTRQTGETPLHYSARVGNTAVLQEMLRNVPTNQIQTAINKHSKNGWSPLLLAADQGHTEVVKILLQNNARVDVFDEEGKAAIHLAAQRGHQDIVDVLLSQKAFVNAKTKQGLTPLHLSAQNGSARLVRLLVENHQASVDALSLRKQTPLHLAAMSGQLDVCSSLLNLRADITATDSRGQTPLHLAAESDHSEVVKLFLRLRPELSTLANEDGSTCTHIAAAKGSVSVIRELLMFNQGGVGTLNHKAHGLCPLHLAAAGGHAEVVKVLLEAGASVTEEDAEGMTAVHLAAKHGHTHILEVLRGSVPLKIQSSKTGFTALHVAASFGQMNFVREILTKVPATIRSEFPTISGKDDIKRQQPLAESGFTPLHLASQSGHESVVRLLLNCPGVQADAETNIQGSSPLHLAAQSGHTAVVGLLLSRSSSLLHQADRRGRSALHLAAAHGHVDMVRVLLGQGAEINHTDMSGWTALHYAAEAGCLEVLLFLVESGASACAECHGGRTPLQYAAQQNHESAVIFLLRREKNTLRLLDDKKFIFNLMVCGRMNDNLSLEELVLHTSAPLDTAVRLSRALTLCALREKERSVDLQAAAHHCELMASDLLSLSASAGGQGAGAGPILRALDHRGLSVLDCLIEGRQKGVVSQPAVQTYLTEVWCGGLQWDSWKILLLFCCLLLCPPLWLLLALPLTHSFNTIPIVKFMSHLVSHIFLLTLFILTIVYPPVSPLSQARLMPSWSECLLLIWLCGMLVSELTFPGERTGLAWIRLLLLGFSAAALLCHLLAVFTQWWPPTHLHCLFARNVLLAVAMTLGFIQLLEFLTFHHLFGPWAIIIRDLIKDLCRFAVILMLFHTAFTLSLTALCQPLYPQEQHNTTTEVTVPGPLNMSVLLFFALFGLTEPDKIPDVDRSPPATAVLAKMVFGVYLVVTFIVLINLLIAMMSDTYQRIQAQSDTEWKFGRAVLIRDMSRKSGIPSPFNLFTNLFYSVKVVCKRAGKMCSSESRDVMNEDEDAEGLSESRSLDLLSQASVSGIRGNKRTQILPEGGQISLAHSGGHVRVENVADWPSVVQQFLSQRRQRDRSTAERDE

Estrogen receptor [1] = target: T2, Estrogen receptor (Homo sapiens, UniProt P03372); experiment: ERα coactivator recruitment enhancers – biochemical, TR-FRET, ERα LBD, dose response (AID 737)
T2 sequence (P03372 whole entry): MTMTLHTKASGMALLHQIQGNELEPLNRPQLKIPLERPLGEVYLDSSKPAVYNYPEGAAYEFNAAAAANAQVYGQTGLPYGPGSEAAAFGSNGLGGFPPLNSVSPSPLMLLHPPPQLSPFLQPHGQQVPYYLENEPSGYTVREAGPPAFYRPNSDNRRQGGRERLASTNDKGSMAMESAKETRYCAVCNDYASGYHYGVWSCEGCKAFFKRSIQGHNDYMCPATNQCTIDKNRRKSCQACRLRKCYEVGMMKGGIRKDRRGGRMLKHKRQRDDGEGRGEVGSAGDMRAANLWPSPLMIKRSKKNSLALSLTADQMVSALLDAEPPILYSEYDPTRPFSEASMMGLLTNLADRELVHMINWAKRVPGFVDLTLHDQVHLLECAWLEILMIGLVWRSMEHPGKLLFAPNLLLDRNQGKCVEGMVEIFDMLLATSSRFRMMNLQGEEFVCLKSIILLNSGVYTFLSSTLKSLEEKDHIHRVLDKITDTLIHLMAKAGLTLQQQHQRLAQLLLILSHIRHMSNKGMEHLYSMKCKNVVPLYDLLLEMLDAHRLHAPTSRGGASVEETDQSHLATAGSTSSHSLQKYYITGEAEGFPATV

NADPH oxidase 1 = target: T3, NADPH oxidase 1 (Homo sapiens, UniProt Q9Y5S8); assay type: functional, cell-based;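 also: Cell-based assay with luminescence read-out, IC50 derived from inhibitor dose-response curves; intracellular ROS from endogenous NOX1 in intact HT29 colon cancer cells; potency of inhibitors that lower the ROS luminescence signal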
T3 sequence (Q9Y5S8 whole entry): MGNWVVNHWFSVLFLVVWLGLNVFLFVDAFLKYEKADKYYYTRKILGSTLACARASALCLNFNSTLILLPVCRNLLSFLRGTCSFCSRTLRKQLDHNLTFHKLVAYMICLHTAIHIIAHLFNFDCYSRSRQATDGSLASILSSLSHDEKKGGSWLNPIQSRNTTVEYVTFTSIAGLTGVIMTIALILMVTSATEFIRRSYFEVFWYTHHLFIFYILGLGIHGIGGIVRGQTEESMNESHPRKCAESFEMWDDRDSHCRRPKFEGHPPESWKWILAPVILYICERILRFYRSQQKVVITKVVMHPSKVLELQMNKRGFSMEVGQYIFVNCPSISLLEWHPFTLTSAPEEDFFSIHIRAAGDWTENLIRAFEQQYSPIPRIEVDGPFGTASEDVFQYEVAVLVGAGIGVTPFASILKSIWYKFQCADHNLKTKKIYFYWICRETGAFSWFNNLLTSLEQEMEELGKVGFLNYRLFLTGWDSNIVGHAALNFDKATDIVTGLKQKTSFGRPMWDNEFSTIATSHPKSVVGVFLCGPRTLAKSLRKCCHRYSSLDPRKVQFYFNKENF

[2] = target: E3 ubiquitin-protein ligase Mdm2 (Homo sapiens, UniProt Q00987); experiment: MDM2-luc reporter signal enhancers, multi-concentration potency testing, MDM2 ubiquitin-protein ligase inhibitor program, whole-cell format, luminescence detection, 384-well microplate (AID 1394); assay type: functional;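 also: MDM2 E3 inhibitors raise luminescence so EC50 is for signal enhancement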
E3 ubiquitin-protein ligase Mdm2, sequence (Q00987 whole entry): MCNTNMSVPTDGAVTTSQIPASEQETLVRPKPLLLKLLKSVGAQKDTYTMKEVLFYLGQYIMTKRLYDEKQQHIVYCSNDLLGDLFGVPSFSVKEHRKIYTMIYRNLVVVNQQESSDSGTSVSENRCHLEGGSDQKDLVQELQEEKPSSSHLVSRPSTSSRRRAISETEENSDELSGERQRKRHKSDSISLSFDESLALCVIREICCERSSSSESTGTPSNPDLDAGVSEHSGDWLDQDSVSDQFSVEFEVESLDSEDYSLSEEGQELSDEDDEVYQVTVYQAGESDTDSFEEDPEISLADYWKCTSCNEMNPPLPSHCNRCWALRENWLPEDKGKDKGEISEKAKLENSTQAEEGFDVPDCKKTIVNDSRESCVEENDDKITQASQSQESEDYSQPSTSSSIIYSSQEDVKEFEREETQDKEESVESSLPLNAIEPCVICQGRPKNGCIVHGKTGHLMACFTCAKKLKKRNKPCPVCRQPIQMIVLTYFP

[3] = Luminescent dose response cell-based high throughput screening assay for inhibitors of the Janus kinase 2 mutant JAK2V617F. [Related pubchem assays: 1446 (Primary screen.), 1521 (Confirmation assay.), 1486 (Counter screen.)]; assay type: functional
Kallikrein-7 = Kallikrein-7 (Homo sapiens, UniProt P49862); experiment: Fluorescence Intensity-based biochemical primary high throughput dose response assay to identify activators of kallikrein-7 (K7) zymogen.
Kallikrein-7, sequence (P49862 whole entry): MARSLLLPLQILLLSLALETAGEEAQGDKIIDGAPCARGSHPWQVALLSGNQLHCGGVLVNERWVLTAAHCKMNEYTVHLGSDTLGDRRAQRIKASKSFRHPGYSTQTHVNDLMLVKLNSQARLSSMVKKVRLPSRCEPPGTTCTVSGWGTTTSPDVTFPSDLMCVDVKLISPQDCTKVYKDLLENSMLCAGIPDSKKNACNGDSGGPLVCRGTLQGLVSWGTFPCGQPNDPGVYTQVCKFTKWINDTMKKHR

[4] = mitochondrial function rescue without frataxin homolog – Friedreich's ataxia, plus single-dose screen, dose response (AID 1465); assay type: functional;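 also: yeast depleted of Yfh1p frataxin homolog grown on glycerol needing respiration; WST-1 tetrazolium dye reduction as measure of cellular dehydrogenase metabolic activity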
[5] = target: T4, RNA-binding protein pos-1 (Caenorhabditis elegans, UniProt G5EF15); experiment: disruptors of C. elegans POS-1 RNA interaction – biochemical, fluorescence polarization, dose response (AID 1964);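 also: purified POS-1 fused to maltose binding protein made in E. coli; potency of compounds blocking POS-1 binding to fluorescent RNA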
T4 sequence (G5EF15 whole entry): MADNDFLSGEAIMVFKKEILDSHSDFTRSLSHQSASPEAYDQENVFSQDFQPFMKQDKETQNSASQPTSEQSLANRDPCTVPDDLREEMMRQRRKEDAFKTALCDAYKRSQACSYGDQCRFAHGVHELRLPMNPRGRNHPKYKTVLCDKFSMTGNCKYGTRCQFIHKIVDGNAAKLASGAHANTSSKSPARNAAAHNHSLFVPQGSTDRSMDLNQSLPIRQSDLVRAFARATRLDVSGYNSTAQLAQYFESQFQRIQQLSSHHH

[6] = target: T5, Zinc finger protein mex-5 (Caenorhabditis elegans, UniProt Q9XUB2); experiment: potency of MEX-5 RNA-binding blockers – biochemical, C. elegans, fluorescence polarization, dose response (AID 1960)
T5 sequence (Q9XUB2 whole entry): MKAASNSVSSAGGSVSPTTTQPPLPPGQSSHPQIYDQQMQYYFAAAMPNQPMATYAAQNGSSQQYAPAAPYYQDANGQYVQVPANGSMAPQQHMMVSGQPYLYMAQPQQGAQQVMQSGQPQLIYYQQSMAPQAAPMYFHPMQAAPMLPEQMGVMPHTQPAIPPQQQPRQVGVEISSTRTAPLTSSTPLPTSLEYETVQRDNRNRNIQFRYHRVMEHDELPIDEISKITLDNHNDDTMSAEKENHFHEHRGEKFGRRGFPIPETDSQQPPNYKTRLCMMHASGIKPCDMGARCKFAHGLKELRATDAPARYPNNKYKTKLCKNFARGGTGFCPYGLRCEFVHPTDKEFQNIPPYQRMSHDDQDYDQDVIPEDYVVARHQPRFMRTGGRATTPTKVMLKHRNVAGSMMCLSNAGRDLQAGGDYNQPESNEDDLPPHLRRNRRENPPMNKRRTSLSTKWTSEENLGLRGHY

Large T antigen = Large T antigen (Simian virus 40, UniProt P03070); assay type: functional, Betapolyomavirus macacae;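 also: Confirmatory-stage PubChem screen for compounds that inhibit SV40 T antigen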
Large T antigen, sequence (P03070 whole entry): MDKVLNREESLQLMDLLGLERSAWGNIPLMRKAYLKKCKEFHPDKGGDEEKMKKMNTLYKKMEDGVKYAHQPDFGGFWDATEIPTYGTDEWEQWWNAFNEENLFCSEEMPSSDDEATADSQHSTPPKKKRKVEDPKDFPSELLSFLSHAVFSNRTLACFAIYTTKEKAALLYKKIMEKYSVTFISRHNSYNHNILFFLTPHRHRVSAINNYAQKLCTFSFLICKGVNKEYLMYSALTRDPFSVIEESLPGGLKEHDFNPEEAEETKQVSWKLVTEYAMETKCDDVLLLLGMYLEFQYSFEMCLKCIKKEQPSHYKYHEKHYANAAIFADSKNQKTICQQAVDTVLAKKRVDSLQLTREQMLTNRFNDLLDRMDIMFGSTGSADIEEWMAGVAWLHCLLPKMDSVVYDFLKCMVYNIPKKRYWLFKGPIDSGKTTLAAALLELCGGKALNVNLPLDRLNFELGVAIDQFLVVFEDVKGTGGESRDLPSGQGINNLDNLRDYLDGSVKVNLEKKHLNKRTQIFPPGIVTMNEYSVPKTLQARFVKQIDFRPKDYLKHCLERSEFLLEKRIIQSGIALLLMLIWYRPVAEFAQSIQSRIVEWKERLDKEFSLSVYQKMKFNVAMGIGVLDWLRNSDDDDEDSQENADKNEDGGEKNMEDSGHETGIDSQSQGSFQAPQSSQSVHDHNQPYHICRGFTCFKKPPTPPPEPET

[7] = M. tuberculosis growth inhibition, HTS (AID 449762); assay type: functional
[8] = viability of uninfected HEp-2 cells – cell-based, HTS, cytotoxicity control for RSV inhibitor project, dose response (AID 2410); assay type: functional; conditions: human respiratory syncytial virus
Estrogen receptor [9] = target: T2, Estrogen receptor
Estrogen receptor beta [10] = target: T6, Estrogen receptor beta (Homo sapiens, UniProt Q92731);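 also: recombinant ER-beta bound to coactivator SRC1 peptide in presence of estradiol agonist; inhibitors block coactivator peptide binding and lower the FRET signal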
T6 sequence (Q92731 whole entry): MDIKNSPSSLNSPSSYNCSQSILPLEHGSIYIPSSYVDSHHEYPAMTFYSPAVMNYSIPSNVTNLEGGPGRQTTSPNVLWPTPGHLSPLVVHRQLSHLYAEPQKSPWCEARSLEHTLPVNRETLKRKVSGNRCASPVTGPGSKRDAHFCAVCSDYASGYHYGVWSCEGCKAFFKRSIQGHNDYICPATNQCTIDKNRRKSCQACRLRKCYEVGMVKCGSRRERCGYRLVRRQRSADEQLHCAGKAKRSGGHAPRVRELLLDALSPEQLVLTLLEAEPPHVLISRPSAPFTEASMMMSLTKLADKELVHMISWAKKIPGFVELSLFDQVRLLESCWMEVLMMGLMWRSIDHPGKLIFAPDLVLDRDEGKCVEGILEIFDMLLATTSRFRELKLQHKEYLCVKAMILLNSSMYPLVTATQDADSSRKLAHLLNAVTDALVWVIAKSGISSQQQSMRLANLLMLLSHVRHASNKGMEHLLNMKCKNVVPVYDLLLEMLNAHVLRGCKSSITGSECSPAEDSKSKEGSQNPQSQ

Estrogen receptor beta [11] = target: T6, Estrogen receptor beta; experiment: blockers of SRC-3 recruitment to ERβ – biochemical, ELISA, streptavidin-HRP readout, orthogonal assay, confirmation (AID 1060)
[12] = target: T7, Mannose-6-phosphate isomerase (Homo sapiens, UniProt P34949); experiment: MPI inhibition at elevated mannose 6-phosphate – biochemical, fluorescence intensity, high mannose 6-phosphate, primary screen (AID 1220)
T7 sequence (P34949 whole entry): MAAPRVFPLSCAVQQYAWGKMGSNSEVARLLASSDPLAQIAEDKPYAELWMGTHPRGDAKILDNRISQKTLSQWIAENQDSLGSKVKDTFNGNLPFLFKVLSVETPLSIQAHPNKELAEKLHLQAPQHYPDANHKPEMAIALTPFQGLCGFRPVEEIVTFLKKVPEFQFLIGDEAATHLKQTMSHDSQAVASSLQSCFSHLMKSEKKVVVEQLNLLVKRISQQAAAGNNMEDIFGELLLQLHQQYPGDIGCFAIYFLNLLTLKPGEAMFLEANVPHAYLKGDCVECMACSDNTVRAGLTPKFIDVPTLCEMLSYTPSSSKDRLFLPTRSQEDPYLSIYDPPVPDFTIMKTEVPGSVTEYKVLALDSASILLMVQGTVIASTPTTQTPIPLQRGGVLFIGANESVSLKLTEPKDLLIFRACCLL

[13] = target: T8, Histone-lysine N-methyltransferase NSD2 (Homo sapiens, UniProt O96028); assay type: biochemical
T8 sequence (O96028 whole entry): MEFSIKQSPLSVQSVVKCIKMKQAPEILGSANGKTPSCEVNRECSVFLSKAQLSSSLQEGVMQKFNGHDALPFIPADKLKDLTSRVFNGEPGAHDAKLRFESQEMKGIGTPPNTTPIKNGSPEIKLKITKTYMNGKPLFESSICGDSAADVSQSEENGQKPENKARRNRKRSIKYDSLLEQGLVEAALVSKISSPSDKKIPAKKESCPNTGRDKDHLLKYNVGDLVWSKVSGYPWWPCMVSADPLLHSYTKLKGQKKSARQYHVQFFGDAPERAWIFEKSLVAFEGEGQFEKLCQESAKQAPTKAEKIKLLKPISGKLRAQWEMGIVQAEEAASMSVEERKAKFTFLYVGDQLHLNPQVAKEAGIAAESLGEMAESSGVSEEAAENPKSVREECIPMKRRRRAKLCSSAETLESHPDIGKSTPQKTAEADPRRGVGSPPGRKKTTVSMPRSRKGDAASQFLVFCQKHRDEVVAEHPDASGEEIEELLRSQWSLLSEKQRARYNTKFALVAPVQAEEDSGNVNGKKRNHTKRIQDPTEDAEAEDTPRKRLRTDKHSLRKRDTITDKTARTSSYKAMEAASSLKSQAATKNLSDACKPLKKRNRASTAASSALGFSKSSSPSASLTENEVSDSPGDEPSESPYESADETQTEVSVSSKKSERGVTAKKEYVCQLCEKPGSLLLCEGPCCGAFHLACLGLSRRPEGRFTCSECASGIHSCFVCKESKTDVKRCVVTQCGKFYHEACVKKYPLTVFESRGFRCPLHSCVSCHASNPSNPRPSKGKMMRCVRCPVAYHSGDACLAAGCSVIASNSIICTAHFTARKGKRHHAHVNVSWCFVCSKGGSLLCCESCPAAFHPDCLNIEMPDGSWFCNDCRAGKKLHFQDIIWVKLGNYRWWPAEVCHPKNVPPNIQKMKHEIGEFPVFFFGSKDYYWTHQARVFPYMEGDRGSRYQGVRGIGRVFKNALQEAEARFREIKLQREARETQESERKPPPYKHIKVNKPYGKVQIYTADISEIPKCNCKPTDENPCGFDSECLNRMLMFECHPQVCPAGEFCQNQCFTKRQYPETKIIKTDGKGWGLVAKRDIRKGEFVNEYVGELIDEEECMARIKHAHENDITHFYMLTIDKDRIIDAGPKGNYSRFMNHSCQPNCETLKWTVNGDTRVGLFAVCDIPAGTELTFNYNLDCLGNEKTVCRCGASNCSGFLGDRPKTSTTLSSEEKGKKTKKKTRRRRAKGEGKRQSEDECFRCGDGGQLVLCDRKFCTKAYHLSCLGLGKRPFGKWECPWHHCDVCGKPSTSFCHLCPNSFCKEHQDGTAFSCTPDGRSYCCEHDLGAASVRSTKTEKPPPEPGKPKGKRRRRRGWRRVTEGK

SMILES: COC(=O)C1(C(C[N+](=O)[O-])c2ccco2)C(=O)NCC1c1ccccc1 (centres undefined)
- EC50 (Mucolipin-3): 7.77 µM (active)
- EC50 (Ion channel NompC): > 29.9 µM (not active)

SMILES: COc1cc(NC(=O)c2cc3c(=O)n(C)c4ccccc4c3n2C)cc(OC)c1OC
- EC50 (Estrogen receptor [1]): 12.9 µM (not active)

SMILES: O=C(Nc1ccc(Cl)cc1)Nc1ccc(Oc2ccccc2)cc1
- IC50 (NADPH oxidase 1): > 17 µM (not active)

SMILES: COc1ccc(S(=O)(=O)NN(C)c2ncc(C(F)(F)F)cc2Cl)cc1
- EC50 [2]: 0.38 µM (not active)

SMILES: O=C(Nc1cccc2c1[nH]c1ccccc12)C(F)(F)F
- IC50 [3]: 2.48 µM (active)
- EC50 (Kallikrein-7): 31.8 µM (inactive)

SMILES: CC1(OC(=O)CCc2ccccc2)C(=O)C=C2C=C(c3ccc(C#N)cc3)N(Cc3ccco3)C=C2C1=O (centres undefined)
- EC50 [4]: > 100 µM (active)

SMILES: COc1ccccc1N1C(=O)NC(=O)/C(=C/c2ccc([N+](=O)[O-])s2)C1=O
- EC50 [5]: 44.1 µM (active)
- EC50 [6]: 23 µM (active)
- IC50 (Large T antigen): > 100 µM (active)
- IC50 [7]: > 100 µM (active)

SMILES: Cc1ccc(S(=O)(=O)N2CCc3ccccc3C2CN2C(=O)c3ccccc3C2=O)cc1 (centres undefined)
- CC50 [8]: 45.1 µM (active)
- EC50 (Mucolipin-3): > 29.9 µM (not active)
- EC50 (Ion channel NompC): > 29.9 µM (not active)

SMILES: O=C(NCc1ccco1)c1cc2c(s1)CSC2
- IC50 (Estrogen receptor [9]): 9.41 µM (active)
- IC50 (Estrogen receptor beta [10]): 7.85 µM (active)
- IC50 (Estrogen receptor beta [11]): 0.0368 µM (not active)

SMILES: COc1ccccc1N=C(S)Nc1cccc2cnccc12
- IC50 [12]: > 50 µM (not active)
- AC50 [13]: 10.1 µM (active)

SMILES: C1CCC(c2nn3c(-c4[nH]nc5c4CCC5)nnc3s2)CC1
- IC50 (Estrogen receptor [9]): > 50 µM (not active)
- IC50 (Estrogen receptor beta [10]): 10.2 µM (active)
- IC50 (Estrogen receptor beta [11]): > 50 µM (not active)

SMILES: CC(=O)Nc1ccccc1OC(=O)c1sc2ccccc2c1Cl
- IC50 (NADPH oxidase 1): > 17 µM (not active)
